In patent US12077503B2, “Substituted cyclic amides and their use as herbicides” (FMC CORPORATION, priority 2015, dated 2024):

How the values were obtained:
Assay type in all cases: in vivo
[1] = system: barnyardgrass (Echinochloa crus-galli); test: Test A preemergence; settings: Echinochloa crus-galli, pre-emergence, 240 h, 0 to 100 scale where 0 is no effect and 100 is complete control, read-out: Barnyardgrass plant response rating
Summary of the method: (§1)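 Ratings of 0 (no effect) to 100 (complete control) come from visual comparison with untreated controls roughly 10 d after treatment. Test chemicals, formulated in a non-phytotoxic solvent mixture with surfactant, were applied either as a preemergence directed soil spray on seeded soil or postemergence to one- to two-leaf plants 2 to 10 cm tall.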

Kochia (Kochia scoparia) [2] = test: Test A preemergence; settings: Bassia scoparia, pre-emergence, 240 h, 0 to 100 scale where 0 is no effect and 100 is complete control, read-out: Kochia plant response rating
Summary of the method: as §1

[3] = system: giant foxtail (Setaria faberii); test: Test A preemergence; settings: Setaria faberi, pre-emergence, 240 h, 0 to 100 scale where 0 is no effect and 100 is complete control, read-out: Foxtail, Giant plant response rating
Summary of the method: as §1

[4] = system: pigweed (Amaranthus retroflexus); test: Test A preemergence; settings: Amaranthus retroflexus, pre-emergence, 240 h, 0 to 100 scale where 0 is no effect and 100 is complete control, read-out: Pigweed plant response rating
[5] = system: ragweed (common ragweed, Ambrosia elatior); test: Test A preemergence; settings: Ambrosia artemisiifolia, pre-emergence, 240 h, 0 to 100 scale where 0 is no effect and 100 is complete control, read-out: Ragweed plant response rating
Summary of the method: as §1

[6] = system: ryegrass, Italian (Italian ryegrass, Lolium multiflorum); test: Test A preemergence; settings: Lolium multiflorum, pre-emergence, 240 h, 0 to 100 scale where 0 is no effect and 100 is complete control, read-out: Ryegrass, Italian plant response rating
Summary of the method: as §1

[7] = system: sedge, umbrella (small-flower umbrella sedge, Cyperus difformis); test: Test B flooded paddy test; settings: Cyperus difformis, 250 g ai/ha, Flood; 0 to 100 scale where 0 is no effect and 100 is complete control; read-out: Sedge, Umbrella plant response rating
Summary of the method: (§2)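 Response scored visually against untreated controls, 0 = no effect and 100 = complete control, 13–15 d after treatment in the greenhouse. Compounds added to paddy water held 3 cm above soil surface. Treatment given at 2-leaf stage.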

[8] = system: barnyardgrass (Echinochloa crus-galli); test: Test B flooded paddy test; settings: Echinochloa crus-galli, 250 g ai/ha, Flood; 0 to 100 scale where 0 is no effect and 100 is complete control; read-out: Barnyardgrass plant response rating
Summary of the method: as §2

[9] = system: ducksalad (Heteranthera limosa); test: Test B flooded paddy test; settings: Heteranthera limosa, 250 g ai/ha, Flood; 0 to 100 scale where 0 is no effect and 100 is complete control; read-out: Ducksalad plant response rating
Summary of the method: as §2

rice (Oryra sativa) = test: Test B flooded paddy test; settings: Oryza sativa, 250 g ai/ha, Flood; 0 to 100 scale where 0 is no effect and 100 is complete control; read-out: Rice plant response rating
Summary of the method: as §2

[10] = system: Galium (catchweed bedstraw, Galium aparine); test: Test A postemergence; settings: Galium, post-emergence, 240 h
Summary of the method: as §1

corn (Zea mays) = test: Test A postemergence; settings: Zea mays, post-emergence, 240 h
Summary of the method: as §1

[11] = system: barnyardgrass (Echinochloa crus-galli); test: Test A postemergence; settings: Echinochloa crus-galli, post-emergence, 240 h
Summary of the method: as §1

Kochia (Kochia scoparia) [12] = test: Test A postemergence; settings: Bassia scoparia, post-emergence, 240 h
Summary of the method: as §1

[13] = system: giant foxtail (Setaria faberii); test: Test A postemergence; settings: Setaria faberi, post-emergence, 240 h
Summary of the method: as §1

[14] = system: wheat (Triticum aestivum); test: Test A postemergence; settings: Triticum aestivum, post-emergence, 240 h, 125 g ai/ha, postemergence, visual injury vs untreated controls after approx. 10 d; 0 = no effect, 100 = complete control; read-out: Wheat plant response rating (0 to 100 scale)
Summary of the method: as §1

[15] = system: pigweed (Amaranthus retroflexus); test: Test A postemergence; settings: Amaranthus retroflexus, post-emergence, 240 h, 125 g ai/ha, postemergence, visual injury vs untreated controls after approx. 10 d; 0 = no effect, 100 = complete control; read-out: Pigweed plant response rating (0 to 100 scale)
Summary of the method: as §1

[16] = system: ragweed (common ragweed, Ambrosia elatior); test: Test A postemergence; settings: Ambrosia artemisiifolia, post-emergence, 240 h, 125 g ai/ha, postemergence, visual injury vs untreated controls after approx. 10 d; 0 = no effect, 100 = complete control; read-out: Ragweed plant response rating (0 to 100 scale)
Summary of the method: as §1

[17] = system: blackgrass (Alopecurus myosuroides); test: Test A postemergence; settings: Alopecurus myosuroides, post-emergence, 240 h
Summary of the method: as §1

[18] = system: ryegrass, Italian (Italian ryegrass, Lolium multiflorum); test: Test A postemergence; settings: Lolium multiflorum, post-emergence, 240 h, 125 g ai/ha, postemergence, visual injury vs untreated controls after approx. 10 d; 0 = no effect, 100 = complete control; read-out: Ryegrass, Italian plant response rating (0 to 100 scale)
Summary of the method: as §1

[19] = 125 g ai/ha, preemergence, approx. 10 d

CON1CC[C@H](c2cccc(C(F)(F)F)c2)[C@@H](C(=O)Nc2cccc(Cl)c2F)C1=O [Compound 1171]
pest or weed control at 31 g/ha ([1]; 31 g ai/ha, Preemergence): 40% | pest or weed control at 125 g/ha [1, 19]: 80% | pest or weed control at 31 g/ha (Kochia (Kochia scoparia) [2]; 31 g ai/ha, Preemergence): 0% | pest or weed control at 125 g/ha (Kochia (Kochia scoparia) [2]; [19]): 30% | pest or weed control at 31 g/ha ([3]; 31 g ai/ha, Preemergence): 70% | pest or weed control at 125 g/ha [3, 19]: 90% | pest or weed control at 31 g/ha ([4]; 31 g ai/ha, Preemergence): 0% | pest or weed control at 125 g/ha [4, 19]: 40% | pest or weed control at 31 g/ha ([5]; 31 g ai/ha, Preemergence): 0% | pest or weed control at 125 g/ha [5, 19]: 0% | pest or weed control at 31 g/ha ([6]; 31 g ai/ha, Preemergence): 0% | pest or weed control at 125 g/ha [6, 19]: 60% | pest or weed control at 250 g/ha [7]: 0% | pest or weed control at 250 g/ha [8]: 30% | pest or weed control at 250 g/ha [9]: 0% | pest or weed control at 250 g/ha (rice (Oryra sativa)): 0% | pest or weed control at 125 g/ha ([10]; 125 g ai/ha, postemergence, visual injury vs untreated controls after approx. 10 d, 0 = no effect, 100 = complete control, read-out: Galium plant response rating (0 to 100 scale)): 0% | pest or weed control at 31 g/ha ([10]; Postemergence, 31 g ai/ha, visual injury after approx. 10 d, 0 to 100 scale, 0 no effect, 100 complete control, read-out: Plant response rating, Galium): 0% | plant injury at 125 g/ha (corn (Zea mays); 125 g ai/ha, postemergence, visual injury vs untreated controls after approx. 10 d, 0 = no effect, 100 = complete control, read-out: Corn plant response rating (0 to 100 scale)): 0% | Corn plant response rating (crop injury, 0 = no effect, 100 = complete kill) at 31 g/ha (corn (Zea mays); Postemergence, 31 g ai/ha, visual injury after approx. 10 d, 0 to 100 scale, 0 no effect, 100 complete control): 0% | pest or weed control at 125 g/ha ([11]; 125 g ai/ha, postemergence, visual injury vs untreated controls after approx. 10 d, 0 = no effect, 100 = complete control, read-out: Barnyardgrass plant response rating (0 to 100 scale)): 70% | pest or weed control at 31 g/ha ([11]; Postemergence, 31 g ai/ha, visual injury after approx. 10 d, 0 to 100 scale, 0 no effect, 100 complete control, read-out: Plant response rating, Barnyardgrass): 20% | pest or weed control at 125 g/ha (Kochia (Kochia scoparia) [12]; 125 g ai/ha, postemergence, visual injury vs untreated controls after approx. 10 d, 0 = no effect, 100 = complete control, read-out: Kochia plant response rating (0 to 100 scale)): 0% | pest or weed control at 31 g/ha (Kochia (Kochia scoparia) [12]; Postemergence, 31 g ai/ha, visual injury after approx. 10 d, 0 to 100 scale, 0 no effect, 100 complete control, read-out: Plant response rating, Kochia): 0% | pest or weed control at 125 g/ha ([13]; 125 g ai/ha, postemergence, visual injury vs untreated controls after approx. 10 d, 0 = no effect, 100 = complete control, read-out: Foxtail, Giant plant response rating (0 to 100 scale)): 60% | pest or weed control at 31 g/ha ([13]; Postemergence, 31 g ai/ha, visual injury after approx. 10 d, 0 to 100 scale, 0 no effect, 100 complete control, read-out: Plant response rating, Foxtail, Giant): 30% | plant injury at 125 g/ha [14]: 0% | pest or weed control at 125 g/ha [15]: 0% | pest or weed control at 125 g/ha [16]: 0% | pest or weed control at 125 g/ha ([17]; 125 g ai/ha, postemergence, visual injury vs untreated controls after approx. 10 d, 0 = no effect, 100 = complete control, read-out: Blackgrass plant response rating (0 to 100 scale)): 0% | pest or weed control at 31 g/ha ([17]; Postemergence, 31 g ai/ha, visual injury after approx. 10 d, 0 to 100 scale, 0 no effect, 100 complete control, read-out: Plant response rating, Blackgrass): 0% | pest or weed control at 125 g/ha [18]: 0%
